The record followed here is ChEMBL document CHEMBL3244107, “Synthesis and structure-activity relationships of bestatin analogues, inhibitors of aminopeptidase B” (J Med Chem, 1977).

Series [1] can be described thus: Retardation factor, Rf value of the compound using BuOH-AcOH-H20 at 4:1:1 ratio by ninhydrin. In kind it is physicochemical.
For another series, the target named is T1, Aminopeptidase B (Rattus norvegicus, UniProt O09175).
T1 sequence (O09175 whole entry): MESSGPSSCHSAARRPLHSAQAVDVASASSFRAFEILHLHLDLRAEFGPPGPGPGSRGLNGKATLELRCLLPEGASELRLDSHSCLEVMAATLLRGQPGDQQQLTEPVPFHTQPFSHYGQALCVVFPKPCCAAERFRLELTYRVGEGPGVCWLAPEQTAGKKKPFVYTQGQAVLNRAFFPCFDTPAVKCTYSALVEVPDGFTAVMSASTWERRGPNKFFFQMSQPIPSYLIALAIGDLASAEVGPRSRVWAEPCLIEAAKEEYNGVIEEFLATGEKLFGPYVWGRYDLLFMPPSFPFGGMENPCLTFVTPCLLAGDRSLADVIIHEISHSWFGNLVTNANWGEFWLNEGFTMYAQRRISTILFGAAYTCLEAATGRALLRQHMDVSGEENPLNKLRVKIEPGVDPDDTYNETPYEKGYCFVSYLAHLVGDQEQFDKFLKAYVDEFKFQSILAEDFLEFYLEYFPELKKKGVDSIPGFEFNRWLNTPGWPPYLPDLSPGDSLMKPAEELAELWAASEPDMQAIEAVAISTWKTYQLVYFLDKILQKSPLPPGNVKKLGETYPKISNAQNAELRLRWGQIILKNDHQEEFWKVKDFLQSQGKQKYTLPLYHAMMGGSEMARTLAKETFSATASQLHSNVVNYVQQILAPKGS
Kind of series: Inhibition of rat liver aminopeptidase B using 0.2 mM […] by colorimetry.

Series [2] can be described thus: Inhibition of leucine aminopeptidase B (unknown origin) using 0.2 mM L-leucine-beta-naphthylamide. On the set-up: species or system Homo sapiens.

Broadly, the IC50 is the concentration that gives 50% inhibition. A higher IC50 goes with weaker potency in that assay.

The structures appear in SMILES notation. Converted amounts (≈) assume the structure as drawn.

Consider `CCCC[C@H](NC(=O)[C@@H](O)[C@H](N)Cc1ccccc1)C(=O)O`, for which the Rf in series [1] stood at 0.47.

In the case of `CC(C)C[C@H](NC(=O)[C@@H](O)[C@H](N)CC(C)C)C(=O)O`, the Rf in series [1] was 0.49.

In the case of `CC(C)C[C@@H](NC(=O)[C@@H](O)[C@@H](N)Cc1ccccc1)C(=O)O`, the IC50 was 0.162 µM at Aminopeptidase B and 2.7 µg/mL (≈ 8.76 µM) in series [2]. For the same molecule, the Rf in series [1] came to 0.52.

Consider `CC(C)C[C@@H](NC(=O)[C@H](O)[C@H](N)Cc1ccccc1)C(=O)O`, for which the IC50 was greater than 811 µM against Aminopeptidase B and greater than 250 µg/mL in series [2]. The Rf in series [1] was 0.37.

Take `CC(C)C[C@H](NC(=O)[C@H](O)[C@@H](N)Cc1ccccc1)C(=O)O`: the IC50 is greater than 811 µM at Aminopeptidase B and greater than 250 µg/mL in series [2]. In series [1], the Rf was 0.49.

Turning to `CC(C)C[C@@H](NC(=O)[C@H](O)[C@@H](N)Cc1ccccc1)C(=O)O`, the IC50 on Aminopeptidase B was 438 µM; in series [2], greater than 250 µg/mL. In series [1], the Rf came to 0.48.

As to `N[C@H](Cc1ccccc1)[C@H](O)C(=O)NCC(=O)O`, in series [1], the Rf is 0.26.

At Aminopeptidase B, `N[C@H](Cc1ccccc1)[C@H](O)C(=O)NCCCC(=O)O` showed a half-inhibitory concentration (IC50) of 392 µM. For the same molecule, the Rf in series [1] was found to be 0.35.

In turn, `N[C@H](Cc1ccccc1)[C@H](O)C(=O)NCCCCCC(=O)O` showed an IC50 against Aminopeptidase B of 357 µM. Also, the Rf in series [1] is recorded as 0.48.

On Aminopeptidase B, `N[C@H](Cc1ccccc1)[C@H](O)C(=O)N1CCC[C@H]1C(=O)O` came in with an IC50 greater than 855 µM. In addition, the Rf in series [1] is recorded as 0.25.

As to `NCCCC[C@H](NC(=O)[C@@H](O)[C@H](N)Cc1ccccc1)C(=O)O`, the IC50 against Aminopeptidase B was greater than 773 µM. The Rf in series [1] is recorded as 0.06.

For `N[C@H](Cc1ccccc1)[C@H](O)C(=O)N[C@@H](CCC(=O)O)C(=O)O`, the Rf in series [1] was found to be 0.27.

For the molecule `NC(=O)CC[C@H](NC(=O)[C@@H](O)[C@H](N)Cc1ccccc1)C(=O)O`, in series [1], the Rf was found to be 0.17.

On to `N[C@H](Cc1ccccc1)[C@H](O)C(=O)N[C@@H](CO)C(=O)O`, for which, on Aminopeptidase B, the IC50 was 2.48 µM. The Rf in series [1] is reported as 0.2.

As to `CSCC[C@H](NC(=O)[C@@H](O)[C@H](N)Cc1ccccc1)C(=O)O`, the Rf in series [1] amounted to 0.37.

Turning to `C[C@H](NC(=O)[C@@H](O)[C@H](N)Cc1ccccc1)C(=O)O`, on Aminopeptidase B, 1.01 µM corresponded to half-maximal inhibition (IC50). Also, the Rf in series [1] amounted to 0.21.

For `CC(C)[C@H](NC(=O)[C@@H](O)[C@H](N)Cc1ccccc1)C(=O)O`, in series [1], the Rf was 0.42.

As for `CCC[C@H](NC(=O)[C@@H](O)[C@H](N)Cc1ccccc1)C(=O)O`, in series [1], the Rf is 0.41.

For the molecule `CC[C@H](C)[C@H](NC(=O)[C@@H](O)[C@H](N)Cc1ccccc1)C(=O)O`, the IC50 on Aminopeptidase B is 0.13 µM. Moreover, the Rf in series [1] is 0.48.

In the case of `N[C@H](Cc1ccccc1)[C@H](O)C(=O)N[C@@H](Cc1ccccc1)C(=O)O`, in series [1], the Rf came out at 0.44.

Molecule `CC(C)CCNC(=O)[C@@H](O)[C@H](N)Cc1ccccc1.Cl` gave an IC50 against Aminopeptidase B of 565 µM. Also, the Rf in series [1] is 0.65.

For `CC(C)C[C@H](NC(=O)[C@@H](O)[C@H](N)Cc1ccccc1)C(=O)NCC(=O)O`, half-maximal inhibition at Aminopeptidase B (IC50) required 93 µM. Also, the Rf in series [1] is on record as 0.34.

As for `CC(C)C[C@H](NC(=O)[C@@H](O)CN)C(=O)O`, on Aminopeptidase B, the midpoint of inhibition, the IC50, lay at 641 µM. Further, the Rf in series [1] came to 0.13.

As to `CC(C)C[C@H](NC(=O)[C@H](O)CN)C(=O)O`, at Aminopeptidase B, the IC50 was greater than 1150 µM. Moreover, the Rf in series [1] turned out to be 0.13.

As for `CC(C)C[C@H](NC(=O)[C@@H](O)[C@H](N)CC1CCCCC1)C(=O)O`, the IC50 at Aminopeptidase B is 3.5 µM. Besides, the Rf in series [1] amounted to 0.47.

Take `CC(C)C[C@H](NC(=O)[C@@H](O)[C@H](N)Cc1ccc([N+](=O)[O-])cc1)C(=O)O`: in series [1], the Rf amounted to 0.58.

On to `CC(C)C[C@H](NC(=O)[C@@H](O)[C@H](N)Cc1ccc(N)cc1)C(=O)O`, for which, in series [1], the Rf is 0.25.

Consider `CC(C)C[C@H](NC(=O)[C@H](O)[C@@H](C)N)C(=O)O`, for which the Rf in series [1] is recorded as 0.23.

Turning to `CC(C)C[C@H](NC(=O)[C@@H](O)[C@@H](C)N)C(=O)O`, the Rf in series [1] amounted to 0.27.

Consider `CC(C)C[C@H](NC(=O)[C@H](O)[C@H](N)CC(C)C)C(=O)O`, for which the Rf in series [1] is 0.43.

With `CC(C)C[C@H](NC(=O)[C@H](O)[C@H](N)c1ccccc1)C(=O)O`, the Rf in series [1] is on record as 0.38.

Turning to `CC(C)C[C@H](NC(=O)[C@@H](O)[C@H](N)c1ccccc1)C(=O)O`, the Rf in series [1] is reported as 0.41.

In the case of `CC(C)C[C@H](NC(=O)[C@H](O)[C@H](N)Cc1ccc(Cl)cc1)C(=O)O`, the Rf in series [1] is reported as 0.42.

Turning to `CC(C)C[C@H](NC(=O)[C@@H](O)[C@H](N)Cc1ccc(Cl)cc1)C(=O)O`, the Rf in series [1] stood at 0.52.

Turning to `Cc1ccc(C[C@@H](N)[C@@H](O)C(=O)N[C@@H](CC(C)C)C(=O)O)cc1`, the Rf in series [1] was found to be 0.53.

With `Cc1ccc(C[C@@H](N)[C@H](O)C(=O)N[C@@H](CC(C)C)C(=O)O)cc1`, the Rf in series [1] turned out to be 0.58.

The molecule `CC(C)C[C@@H](NC(=O)[C@@H](O)[C@H](N)Cc1ccccc1)C(=O)O` registered an IC50 in series [2] of 3.4 µg/mL (≈ 11 µM). Also, in series [1], the Rf came to 0.49.

`N[C@H](Cc1ccccc1)[C@H](O)C(=O)NCCC(=O)O` gave an IC50 on Aminopeptidase B of 141 µM. Also, the Rf in series [1] came out at 0.34.

`CC(C)C[C@H](NC(=O)[C@@H](O)[C@@H](N)Cc1ccccc1)C(=O)O`: the half-inhibitory concentration (IC50) in series [2] amounted to 0.07 µg/mL (≈ 0.227 µM). In series [1], the Rf is reported as 0.37.

As for `CC(C)C[C@H](NC(=O)[C@H](O)[C@H](N)Cc1ccccc1)C(=O)O`, the IC50 was 324 µM against Aminopeptidase B and 7.5 µg/mL (≈ 24.3 µM) in series [2]. Also, in series [1], the Rf worked out at 0.52.

`CCCCCCC(NC(=O)[C@@H](O)[C@H](N)Cc1ccccc1)C(=O)O` (mixture of isomers): in series [1], the Rf turned out to be 0.58.

For `CC(C)C[C@H](NC(=O)C(O)C(N)Cc1ccccc1Cl)C(=O)O` (mixture of isomers), in series [1], the Rf stood at 0.46.

Turning to `CC(C)C[C@H](NC(=O)[C@@H](O)[C@H](N)Cc1ccccc1)C(=O)O` [UBENIMEX], the IC50 on Aminopeptidase B is 0.162 µM; in series [2] it was 0.01 µg/mL (≈ 0.0324 µM). Moreover, the Rf in series [1] is given as 0.48.
